Results reported in ChEMBL document CHEMBL1138067, “A new synthesis of sulfonamides by aminolysis of p-nitrophenylsulfonates yielding potent and selective adenosine A2B receptor antagonists” (J Med Chem, 2006).

Assays:
[1] = molecular target: T1, Adenosine receptor A3 (Homo sapiens, UniProt P0DMS8); assay: Displacement of [3H]PSB11 from human recombinant adenosine A3 receptor expressed in CHO cells; format: cell-based
T1 sequence (P0DMS8 whole entry): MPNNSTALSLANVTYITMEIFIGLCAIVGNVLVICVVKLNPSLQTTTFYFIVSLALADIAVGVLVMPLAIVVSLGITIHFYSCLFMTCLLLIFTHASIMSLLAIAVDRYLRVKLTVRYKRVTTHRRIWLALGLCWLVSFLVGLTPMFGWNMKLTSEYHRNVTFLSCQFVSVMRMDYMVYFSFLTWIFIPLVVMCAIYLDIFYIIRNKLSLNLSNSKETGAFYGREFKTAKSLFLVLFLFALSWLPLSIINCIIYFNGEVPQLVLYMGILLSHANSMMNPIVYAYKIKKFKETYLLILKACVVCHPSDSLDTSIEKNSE

[2] = molecular target: T2, Adenosine receptor A2b (Homo sapiens, UniProt P29275); assay: Displacement of [3H]PSB298 from human recombinant adenosine A2B receptor expressed in CHO cells; format: cell-based
T2 sequence (P29275 whole entry): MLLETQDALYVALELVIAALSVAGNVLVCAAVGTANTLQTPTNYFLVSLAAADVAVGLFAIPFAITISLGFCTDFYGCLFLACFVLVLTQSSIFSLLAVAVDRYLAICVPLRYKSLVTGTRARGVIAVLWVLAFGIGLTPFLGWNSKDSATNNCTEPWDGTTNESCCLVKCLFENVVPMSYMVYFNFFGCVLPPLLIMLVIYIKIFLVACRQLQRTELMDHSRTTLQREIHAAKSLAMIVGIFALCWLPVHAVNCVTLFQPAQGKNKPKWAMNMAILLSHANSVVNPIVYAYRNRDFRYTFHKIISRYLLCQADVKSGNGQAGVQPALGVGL

[3] = molecular target: T3, Adenosine receptor A1 (Homo sapiens, UniProt P30542); assay: Displacement of [3H]CCPA from human recombinant adenosine A1 receptor expressed in CHO cells; format: cell-based
T3 sequence (P30542 whole entry): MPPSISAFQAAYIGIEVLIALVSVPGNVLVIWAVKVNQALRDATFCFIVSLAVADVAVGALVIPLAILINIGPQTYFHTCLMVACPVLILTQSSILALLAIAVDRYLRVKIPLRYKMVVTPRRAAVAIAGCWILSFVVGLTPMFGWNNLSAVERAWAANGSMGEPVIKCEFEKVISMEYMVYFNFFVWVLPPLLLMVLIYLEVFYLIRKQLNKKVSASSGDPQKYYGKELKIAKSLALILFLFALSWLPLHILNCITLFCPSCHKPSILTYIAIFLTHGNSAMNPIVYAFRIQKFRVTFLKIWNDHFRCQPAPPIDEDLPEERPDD

[4] = molecular target: Adenosine receptor A2a (Homo sapiens, UniProt P29274); assay: Displacement of [3H]MSX2 from human recombinant adenosine A2A receptor expressed in CHO cells; format: cell-based
[5] = molecular target: Adenosine receptor A2a (Rattus norvegicus, UniProt P30543); assay: Displacement of [3H]MSX2 from adenosine A2A receptor in rat brain striatal membranes; format: cell membranes, Membrane
[6] = molecular target: T4, Adenosine receptor A1 (Rattus norvegicus, UniProt P25099); assay: Displacement of [3H]CCPA from adenosine A1 receptor in rat brain cortical membranes; format: cell membranes, Membrane
T4 sequence (P25099 whole entry): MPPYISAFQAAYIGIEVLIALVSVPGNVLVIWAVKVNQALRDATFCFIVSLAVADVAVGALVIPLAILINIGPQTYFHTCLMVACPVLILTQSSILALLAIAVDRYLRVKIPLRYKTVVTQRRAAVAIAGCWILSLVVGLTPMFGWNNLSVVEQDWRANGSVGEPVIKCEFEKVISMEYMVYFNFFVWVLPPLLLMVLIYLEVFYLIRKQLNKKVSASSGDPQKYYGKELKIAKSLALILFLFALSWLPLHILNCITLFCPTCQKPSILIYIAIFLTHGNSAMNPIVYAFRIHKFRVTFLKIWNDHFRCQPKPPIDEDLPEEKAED

[7] = molecular target: T5, Adenosine receptor A3 (Homo sapiens) (UniProt P0DMS8); assay: Inhibition of [3H]PSB11 binding to human recombinant adenosine A3 receptor in CHO cells at >=1 uM; format: cell-based
T5 sequence (whole entry): T1 sequence (P0DMS8 whole entry)

[8] = molecular target: T5, Adenosine receptor A3 (Homo sapiens); assay: Inhibition of [3H]PSB11 binding to human recombinant adenosine A3 receptor in CHO cells at >10 uM; format: cell-based
[9] = molecular target: T5, Adenosine receptor A3 (Homo sapiens); assay: (§1) Inhibition of [3H]PSB11 binding to human recombinant adenosine A3 receptor in CHO cells at >=10 uM; format: cell-based
[10] = molecular target: Adenosine receptors; A2b & A3 (Homo sapiens) (UniProt P29275+P0DMS8); assay: Selectivity for human adenosine A2B receptor over adenosine A3 receptor; format: protein assay
[11] = molecular target: Adenosine receptors; A1 & A2b (Homo sapiens) (UniProt P30542+P29275); assay: Selectivity for human adenosine A2B receptor over adenosine A1 receptor; format: protein assay
[12] = molecular target: T5, Adenosine receptor A3 (Homo sapiens); assay: Inhibition of [3H]PSB11 binding to human recombinant adenosine A3 receptor in CHO cells at >1 uM; format: cell-based
[13] = molecular target: T1, Adenosine receptor A3; assay: as §1; format: cell-based
[14] = molecular target: T1, Adenosine receptor A3; assay: Displacement of [125I]AB-MECA from human recombinant adenosine A3 receptor expressed in CHO cells; format: cell-based

Chain of Adenosine receptor A2a (Rattus norvegicus, UniProt P30543) (P30543 whole entry): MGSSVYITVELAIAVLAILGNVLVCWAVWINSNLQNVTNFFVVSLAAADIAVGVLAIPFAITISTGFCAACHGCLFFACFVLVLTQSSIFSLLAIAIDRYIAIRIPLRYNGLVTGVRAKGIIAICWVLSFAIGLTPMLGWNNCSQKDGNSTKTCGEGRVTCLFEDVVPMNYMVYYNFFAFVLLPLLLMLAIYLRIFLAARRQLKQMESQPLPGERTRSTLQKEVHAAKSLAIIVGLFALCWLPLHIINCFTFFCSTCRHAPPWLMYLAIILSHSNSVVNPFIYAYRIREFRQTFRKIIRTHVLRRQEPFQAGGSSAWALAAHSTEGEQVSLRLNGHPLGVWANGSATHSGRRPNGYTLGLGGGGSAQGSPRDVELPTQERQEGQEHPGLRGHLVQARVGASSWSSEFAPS
Chain of Adenosine receptor A2a (Homo sapiens, UniProt P29274) (P29274 whole entry): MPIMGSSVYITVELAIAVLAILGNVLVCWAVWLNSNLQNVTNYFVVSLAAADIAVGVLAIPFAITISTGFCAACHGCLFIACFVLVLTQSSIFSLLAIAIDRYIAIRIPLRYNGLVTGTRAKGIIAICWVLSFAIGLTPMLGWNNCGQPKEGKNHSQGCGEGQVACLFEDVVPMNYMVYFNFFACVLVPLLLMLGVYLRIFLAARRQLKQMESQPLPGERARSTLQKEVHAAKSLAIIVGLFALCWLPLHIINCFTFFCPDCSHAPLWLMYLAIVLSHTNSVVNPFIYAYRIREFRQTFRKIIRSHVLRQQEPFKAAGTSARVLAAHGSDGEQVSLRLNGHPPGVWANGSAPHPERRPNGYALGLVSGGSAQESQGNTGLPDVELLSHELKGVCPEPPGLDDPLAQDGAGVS

| SMILES | Ki [1] [µM] | Ki [2] [nM] | Ki [5] [nM] | Ki [6] [nM] | further results |
| --- | --- | --- | --- | --- | --- |
| Cn1c(=O)c2[nH]c(-c3ccc(S(=O)(=O)NCCc4ccccc4)cc3)nc2n(C)c1=O | 1.08 | 4.48 | 113 | 12 | Ki [3]: 185 nM; Ki [4]: 32.6 nM |
| CCCn1c(=O)[nH]c2nc(-c3ccc(S(=O)(=O)NCC(=O)O)cc3)[nH]c2c1=O | > 10 | 101 | 320 | 100 |  |
| CCCn1c(=O)[nH]c2[nH]c(-c3ccc(S(=O)(=O)Nc4ccccc4)cc3)nc2c1=O | ≥ 1 | 31.4 | 23 | 1.8 | inhibition [7]: 48% |
| CC(C)NS(=O)(=O)c1ccc(-c2nc3c(=O)n(C)c(=O)n(C)c3[nH]2)cc1 |  |  |  |  | inhibition [8]: 27% |
| Cn1c(=O)c2nc(-c3ccc(S(=O)(=O)NCCO)cc3)[nH]c2n(C)c1=O |  |  |  |  | inhibition [9]: 49% |
| CCCCNS(=O)(=O)c1ccc(-c2nc3c([nH]2)c(=O)n(C)c(=O)n3C)cc1 | ≥ 10 | 122 | 165 | 27 |  |
| CCCn1c(=O)[nH]c2[nH]c(-c3ccc(S(=O)(=O)NCCc4ccccc4)cc3)nc2c1=O | ≥ 10 | 3.62 | 297 | 10 | inhibition [9]: 37%; Ki [3]: 183 nM; Selectivity ratio [10]: > 2700; Ki [4]: 769 nM; Selectivity ratio [11]: 50 |
| CCCn1c(=O)[nH]c2nc(-c3ccc(S(=O)(=O)N4CCN(Cc5ccccc5)CC4)cc3)[nH]c2c1=O | > 1 | 3.6 | 93.7 | 260 | Ki [3]: 2070 nM; Selectivity ratio [10]: > 278; Ki [4]: 484 nM; Selectivity ratio [11]: 574; inhibition [12]: 29% |
| CCCN(CCC)S(=O)(=O)c1ccc(-c2nc3[nH]c(=O)n(CCC)c(=O)c3[nH]2)cc1 | > 1 | 53.8 | 42 | 5.5 |  |
| CC(C)NS(=O)(=O)c1ccc(-c2nc3c([nH]2)c(=O)n(C)c(=O)n3C)cc1 | > 10 | 102 | 283 | 75 |  |
| Cn1c(=O)c2nc(-c3ccc(S(=O)(=O)NCC(=O)O)cc3)[nH]c2n(C)c1=O | ≥ 10 | 154 | 182 | 64 | inhibition [13]: 41% |
| CCCN(CCC)S(=O)(=O)c1ccc(-c2nc3c(=O)n(CCC)c(=O)[nH]c3[nH]2)cc1 |  |  |  |  | inhibition [12]: 18% |
| Cn1c(=O)c2[nH]c(-c3ccc(S(=O)(=O)O)cc3)nc2n(C)c1=O |  |  |  |  | Ki [14]: 5.89 µM |
| CCCn1c(=O)[nH]c2nc(-c3ccc(S(=O)(=O)O)cc3)[nH]c2c1=O | > 10 |  |  |  | Ki [3]: > 10000 nM |
| CCCn1c(=O)[nH]c2[nH]c(-c3ccc(S(=O)(=O)NCc4ccccc4)cc3)nc2c1=O | ≥ 1 | 4.2 | 26.7 | 4.6 | inhibition [7]: 41%; Ki [3]: 54.8 nM; Selectivity ratio [10]: > 200; Ki [4]: 162 nM; Selectivity ratio [11]: 13 |
| CCCCNS(=O)(=O)c1ccc(-c2nc3c(=O)n(C)c(=O)n(C)c3[nH]2)cc1 |  |  |  |  | inhibition [9]: 43% |
| CCCn1c(=O)[nH]c2[nH]c(-c3ccc(S(=O)(=O)NCC(=O)O)cc3)nc2c1=O |  |  |  |  | inhibition [8]: 25% |
| CCCn1c(=O)[nH]c2[nH]c(-c3ccc(S(=O)(=O)NCCO)cc3)nc2c1=O | ≥ 10 | 27.1 | 287 | 45 | inhibition [9]: 36% |
| Cn1c(=O)c2[nH]c(-c3ccc(S(=O)(=O)NCCO)cc3)nc2n(C)c1=O | ≥ 10 | 250 | 347 | 98 |  |
